For the series, the system named is HaCaT cells. Kind of series: Cell viability assay (MTT) for in vitro skin irritation of active ingredients. In kind it is cell-based, human. As to conditions: for Cell viability(%): MTT. The procedure:
HaCaT cells, a human keratinocyte cell line, are used as the in vitro model to test any irritation effect of the active ingredients used in the polymeric solution to form the microdepot delivery system of the present invention. The following is the procedures of an MTT assay for testing any skin irritation effect of the active ingredients used in the polymeric solution of the present invention: • a) 12 mM MTT stock solution is prepared by adding 1 mL of sterile PBS into one 5 mg vial of MTT (Component A) and mixed by sonication until the vial of MTT is dissolved in the PBS; • b) HaCaT cells at 5,000 cells per well are seed into a 96-well plate and incubated at 37° C. in 5% CO2 for 24 to 48 hours until the cells become adherent; • c) Culture medium in each well is removed and replaced with 100 μL of test compound (e.g., active ingredient used in the polymeric solution of the present invention); • d) 10 μL of the MTT stock solution prepared in step (a) is added to each well; a negative control containing 100 μL of culture medium and 10 μL of the MTT stock solution is also included for comparison; • e) Both test samples and negative control prepared in step (d) are incubated at 37° C. for 4 hours; • f) 25 μL of the solution is removed from each well after incubation in step (e) followed by adding 50 μL of DMSO to each well and mix thoroughly by pipette; • g) The mixture in step (f) is incubated at 37° C. for 10 minutes; • h) The mixture in each well after the incubation in step (g) is mixed again before measuring absorbance at 540 nm; • i) The mixture is subject to a spectrophotometer to measure the absorbance at 540 nm.
The cell viability of HaCaT cells with the treatment of the test compound is calculated based on the following formula:
[formula] where ^OD(1) is the absorbance of culture medium only; ^OD(2) is the absorbance of the culture medium with the cells; ^OD(3) is the absorbance of the culture medium with the test compound; and ^OD(4) is the absorbance of the culture medium with the cells and test compound.

Where a SMILES comes first, the peptide text is derived from it. The star is where a group is joined. Palmitoyl = CCCCCCCCCCCCCCCC(=O)*

On to `CCCCCCCCCCCCCCCC(=O)N[C@@H](CCCCN)C(=O)N[C@H](C(=O)N[C@H](C(=O)N[C@@H](CCCCN)C(=O)N[C@@H](CO)C(=O)O)[C@@H](C)O)[C@@H](C)O` [Pal-KTTKS] (Palmitoyl-KTTKS-OH), for which the “Cell viability(%)” value is 119% (test compound 3%); 135.1% (test compound 4%); 122.6% (test compound 5%); 141.9% (test compound 8%); 127.8% (test compound 10%). Moreover, the “cytotoxicity (viability higher than or equal to control)” value (“cytotoxicity” for short) (concentrations ranging from 3% to 10%) is “non-cytotoxic”.
With `NC(=O)c1cccnc1` [Niacinamide, reference compound], the “Cell viability(%)” value reads like this: (test compound 2%) 115%; (test compound 4%) 91.34%; (test compound 6%) 77.44%; (test compound 8%) 84.08%; (test compound 10%) 80.43%. Moreover, where the note is “at 2%”, the “cytotoxicity” value is on record as “non-cytotoxic”.
GHK-Cu: the “Cell viability(%)” value stood at 135.1% (test compound 0.2%); 139.6% (test compound 0.5%); 144.6% (test compound 1%); 132.7% (test compound 2%); 136.1% (test compound 5%). In addition, the “cytotoxicity” value (concentrations ranging from 0.2% to 5%) is listed as “non-cytotoxic”.

For the origin of these results see patent US9833405B2, “Biodegradable microdepot delivery system for topical delivery” (Nano and Advanced Materials Institute Limited, priority 2014, dated 2017).
